Data published in patent US20080027088A1, “Imidazole-Based Hmg-Coa Reductase Inhibitors” (Warner-Lambert Company, LLC, priority 2004, published 2008).

Assays:
[1] = tested on: ApoE KO mice fed a Western diet; test: Plasma and liver sphingomyelin by LC/MS, 4 weeks; assay type: in vivo
Description: Animal experiments—Male C57BI/6J and ApoE KO mice on C57BI/6J background were obtained from the Jackson Laboratory (Bar Harbor, Me.) or Taconic (Germantown, N.Y.) (Plaque formation in ApoE KO mice is lipid-driven (A. S. Plump et al., Cell. 1992;71 (2):343-53)). Myriocin was mixed with Western diet containing 0.21% cholesterol and 21% fat. 8-12-week-old mice received 0.3 mg myriocin/kg/day for 12 weeks (Table 1). 10-12 week-old ApoE KO mice (n=8) were pre-fed a western diet for 2 weeks and mice received various concentrations of myriocin for 4 weeks in diet admix. Control groups consisted of ApoE KO mice fed normal chow or Western diet without myriocin, and normal chow-fed C57BI/6J mice. Body weight and chow feeding was measured every week to examine the food consumption. For the femoral artery cuff model, 8-10 week-old male ApoE KO mice were anethetized and the right femoral artery was dissected from its surroundings. […]
Analysis of Sphingolipids and Phospholipids by LC/MS and HPLC—Total lipids were extracted by the modified method of Bligh-Dyer extraction (E. G. Bligh and W. J. Dyer, Can. J. Med. Sci. 1959;37:911-917; and D. K. Perry, A. Bielawska and Y. A. Hannun, Methods Enzymol. 2000;312:22-31). A Micromass (Waters Corp., Milford, Mass.) Quattro Ultima tandem quadrupole mass spectrometer with a standard Z-spray™ ion source, set to electrospray positive ionization mode, with MassLynx™ version 3.5 operating software, was used for all quantitative determinations. […] The following ion transitions were used for quantification: sphingomyelin (704→184 m/z), sphinganine (302→284 m/z), ceramide (566→264 m/z) and psychosine (462→282 m/z) as an internal standard. […]
The liquid chromatography system was composed of twin Shimadzu (Columbia, Md.) LC-10ADvp HPLC pumps with a SCL-10Avp controller (flow rate 0.2 mL/minute), and a LEAP Technologies (Carrboro, N.C.) CTC PAL autosampler. For the quantitative method, the analytical column was a Phenomenex (Torrance, Calif.) Polar-RP (2.0×150 mm, 4 μm) with a MetaChem (Torrance, Calif.) MetaGuard Polaris C8 2.0 mm direct connect (5 μm) guard column. […]

[2] = tested on: ApoE KO mice fed a Western diet; test: Plasma lipoprotein cholesterol distribution by FPLC, 12 weeks; assay type: in vivo; conditions: 0.3 mg/kg/day
Description: Animal experiments—Male C57BI/6J and ApoE KO mice on C57BI/6J background were obtained from the Jackson Laboratory (Bar Harbor, Me.) or Taconic (Germantown, N.Y.) (Plaque formation in ApoE KO mice is lipid-driven (A. S. Plump et al., Cell. 1992;71 (2):343-53)). Myriocin was mixed with Western diet containing 0.21% cholesterol and 21% fat. 8-12-week-old mice received 0.3 mg myriocin/kg/day for 12 weeks (Table 1). 10-12 week-old ApoE KO mice (n=8) were pre-fed a western diet for 2 weeks and mice received various concentrations of myriocin for 4 weeks in diet admix. Control groups consisted of ApoE KO mice fed normal chow or Western diet without myriocin, and normal chow-fed C57BI/6J mice. Body weight and chow feeding was measured every week to examine the food consumption. For the femoral artery cuff model, 8-10 week-old male ApoE KO mice were anethetized and the right femoral artery was dissected from its surroundings. A nonconstrictive polyethylene cuff (Portex, 0.40-mm inner diameter, 0.80-mm outer diameter, and 1.5-mm length) was placed looselyaround the right femoral artery.
Plasma lipids and serum amyloid A measurement—Mice were sacrificed by CO2 inhalation and blood was collected through cardiac puncture. Plasma concentrations of total cholesterol and triglyceride were determined enzymatically on a Cobas Mira Plus auto-analyzer using Cholesterol R1 and Triglycerides Reagent methods, respectively (Roche Diagnostics, Indiana, USA). Colormetric changes were measured at 500 nm. Lipoproteins were separated from mouse plasma by fast-protein liquid chromatography utilizing a Superose 6HR column. Cholesterol distribution among lipoproteins was determined by in-line post column analysis (K. A. Kieft, T. M. Bocan and B. R. Krause, J. Lipid Res. 1991; 32:859-66). Serum Amyloid A (SAA) protein in plasma was measured by ELISA according to the manufacturer's instructions (Biosource).
FIG. 6. Plasma Lipoprotein Distribution of ApoE KO Mice Fed a Western Diet. After 12 weeks of diet admix myriocin treatment (0.3 mg/kg/day), mice were sacrificed and plasma was isolated for lipoprotein composition. βVLDL (A), LDL (B) and HDL (C) Lipoproteins were separated from mouse plasma by fast-protein liquid chromatography (FPLC) utilizing a Superose 6HR column. Cholesterol distribution among lipoproteins was determined by in-line post column analysis (Kieft, K. A., T. M. A. Bocan, B. R. Krause, J. Lipid Res. 1991, 32:859-866.). The values reported are mean±SEM (n=5, *P<0.01, Western diet vs other study groups; n=5, #P<0.05, Western diet plus myriocin vs normal chow).

[3] = vs Western diet-fed ApoE KO mice

Q: How did the “liver SM levels decreased, maximum” value ([1]; 0.1 mg/kg/day) turn out when CCCCCCC(=O)CCCCCC/C=C/C[C@@H](O)[C@H](O)[C@@](N)(CO)C(=O)O [myriocin] was run?
A: The value was 46%.

Q: And the “liver SM levels” value ([1]; 1 mg/kg/day)?
A: The value was “comparable to the non-treated group”.

Q: What about the “plasma SM levels lowered (LC/MS)” value ([1]; 1 mg/kg/day) of the same compound?
A: The value was 70%.

Q: What about the “plasma apoB levels” value ([2]; comparable to standard chow-fed group) of the same compound?
A: The value was “lowered”.

Q: What about the HDL-cholesterol content increased [2, 3] of the same compound?
A: Its HDL-cholesterol content increased is 54%.

Q: What about the LDL-cholesterol lowered [2, 3] of the same compound?
A: Its LDL-cholesterol lowered is 35%.

Q: What about the βVLDL-cholesterol lowered [2, 3] of the same compound?
A: The βVLDL-cholesterol lowered was 51%.
